Source: patent US8552183B2, “Process for the covalent coupling of two molecules by means of a diels-alder reaction with inverse electron requirement” (Deutsches Krebsforschungszentrum Stiftung des Offentlichen …, priority 2006, dated 2013)

How the values were obtained:
Type in all cases: physicochemical
[1] = DARinv kinetic measurement, tetrazines with dienophile 13 (Reppe-ester); conditions: second order
Method: (§1) Exploratory kinetic DARinv measurements for the produced dienes and dienophiles show the expected broad reaction behavior.
(§2) Legend: rate constants for the reaction for the reaction DARinv of dienes with dienophiles in liter mol^−1s^−1; n.d. means not yet measured. n.d(+) means: reaction is carried out, however, is too slow for the measurements, DAR adduct is characterized.
(§3) The conduction is very simple since the tetrazines have an absorption maximum of sufficient intensity at 520 nm whose reduction can be very well traced by means of photometry. The kinetic analysis supplies a rate law of second order.

[2] = DARinv kinetic measurement, tetrazines with dienophile 28 (photometry at 520 nm); conditions: second order
Method: as §1, §2, §3

[3] = DARinv kinetic measurement, tetrazines with dienophile 26; conditions: second order
Method: as §1, §2, §3

[4] = DARinv kinetic measurement, tetrazines with dienophile 27
Method: as §1, §2, §3

[5] = DARinv kinetic measurement, tetrazines with dienophile 17; conditions: second order
Method: as §1, §2, §3

[6] = DARinv kinetic measurement, tetrazines with dienophile 14; conditions: second order
Method: as §1, §2, §3

[7] = DARinv kinetic measurement, tetrazines with dienophile 16; conditions: second order
Method: as §1, §2, §3

[8] = DARinv of a methylene-group dienophile, reaction time; conditions: room temperature; reacts very slowly
Method: A twofold substituted double bond as occurring in fatty acids or lipids, only reacts very slowly under normal conditions in the sense of DARinv. A methylene group, such as in the perilla alcohol, also reacts very slowly at room temperature (60 hours) in the sense of the DARinv thereby forming the expected adduct. However, as soon as a double bond is integrated within a carbocyclic ring system, it reacts much more rapidly than dienophile, the reactivity decreasing with increasing ring size, starting with the cyclopropene, and passing through a minimum with cyclohexene. In ring systems greater than seven rings, triple bonds can also react as inverse dienophiles.

[9] = with dienophile 27, lower part of Table 2 (drawing 12)
[10] = with dienophile 27, upper part of Table 2 (drawing 3)

| Compound | rate constant k of DARinv [1] | rate constant k of DARinv [2] | rate constant k of DARinv [3] | rate constant k of DARinv [4, 9] | rate constant k of DARinv [4, 10] | rate constant k of DARinv [5] | rate constant k of DARinv [6] | rate constant k of DARinv [7] | reaction time of DARinv forming the expected adduct [8] |
| --- | --- | --- | --- | --- | --- | --- | --- | --- | --- |
| COC(=O)CNC(=O)c1nnc(C(=O)N(C)C)nn1 | 0.014 M⁻¹ s⁻¹ | <10^−4 liter mol^−1s^−1 | <10^−4 liter mol^−1s^−1 | – | – | – | – | – | – |
| O=C(NCCO)c1nnc(C(=O)NCCO)nn1 | 0.2 M⁻¹ s⁻¹ | 0.023 L/mol/s | 0.0053 L/mol/s | 0.008 M⁻¹ s⁻¹ | 0.0067 M⁻¹ s⁻¹ | 0.06 M⁻¹ s⁻¹ | 0.69 M⁻¹ s⁻¹ | 0.11 M⁻¹ s⁻¹ | – |
| COC(=O)CNC(=O)c1nnc(C(=O)NCC(=O)OC)nn1 | 0.028 M⁻¹ s⁻¹ | 0.028 L/mol/s | 0.0056 L/mol/s | 0.0073 M⁻¹ s⁻¹ | 0.0069 M⁻¹ s⁻¹ | 0.18 M⁻¹ s⁻¹ | 0.048 M⁻¹ s⁻¹ | 0.44 M⁻¹ s⁻¹ | – |
| C=C(C)[C@@H]1CC=C(CO)CC1 [perilla alcohol] | – | – | – | – | – | – | – | – | 60 h |
| COC(=O)c1nnc(C(=O)OC)nn1 | 3.4 M⁻¹ s⁻¹ | 0.022 L/mol/s | 0.0028 L/mol/s | 0.0048 M⁻¹ s⁻¹ | 0.0036 M⁻¹ s⁻¹ | 0.13 M⁻¹ s⁻¹ | 1.63 M⁻¹ s⁻¹ | 0.44 M⁻¹ s⁻¹ | – |
